Read-outs that look alike come from different tables or passages of the source.
Biological target: T1, CsF3′H (Camellia sinensis, UniProt A0A0S2LLA9)
T1 construct: microsomes of Saccharomyces cerevisiae WAT11, which co-expresses an Arabidopsis thaliana P450 reductase; ORF amplified with its own stop codon, no tag stated
Experiment: HPLC product formation with recombinant yeast microsomes
Format: biochemical
Conditions: 1.0 mM NADPH, 100 mM sodium phosphate pH 7.0, 30 °C, 30 min
Description: HPLC product formation with recombinant yeast microsomes on CsF3′H

T1 sequence (A0A0S2LLA9 entry or part of it): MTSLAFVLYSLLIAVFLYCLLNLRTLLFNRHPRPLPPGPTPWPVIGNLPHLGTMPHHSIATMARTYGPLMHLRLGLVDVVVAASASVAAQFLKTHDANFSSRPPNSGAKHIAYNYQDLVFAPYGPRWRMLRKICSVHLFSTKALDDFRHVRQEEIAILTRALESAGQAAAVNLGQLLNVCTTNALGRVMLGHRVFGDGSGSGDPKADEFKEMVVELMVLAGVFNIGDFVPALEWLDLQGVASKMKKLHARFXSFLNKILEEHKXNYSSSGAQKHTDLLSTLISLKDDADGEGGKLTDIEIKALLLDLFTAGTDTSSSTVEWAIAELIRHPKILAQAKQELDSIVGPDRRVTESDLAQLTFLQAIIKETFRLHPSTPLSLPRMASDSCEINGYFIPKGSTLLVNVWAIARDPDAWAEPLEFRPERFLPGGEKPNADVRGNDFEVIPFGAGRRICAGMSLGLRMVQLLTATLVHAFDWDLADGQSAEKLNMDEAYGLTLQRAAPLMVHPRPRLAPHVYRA

Question: Which Km (racemic substrate, read-out: Dihydrokaempferol) does the source give for `O=C1c2c(O)cc(O)cc2OC(c2ccc(O)cc2)C1O` (racemic) [Dihydrokaempferol] here?
Answer: The Km was 143.6 ± 0.69 µM.

Question: Which Km (racemic substrate, read-out: Naringenin) does the source give for `O=C1CC(c2ccc(O)cc2)Oc2cc(O)cc(O)c21` (racemic) [Naringenin] here?
Answer: The Km was 17.1 ± 0.46 µM.

Question: Which Km (read-out: Kaempferol) does the source give for `O=c1c(O)c(-c2ccc(O)cc2)oc2cc(O)cc(O)c12` [Kaempferol] here?
Answer: Its Km is 68.06 ± 0.43 µM.
